We go through 1 compound from patent publication US8852569B2, “Prevention and treatment of itch with cysteine protease inhibition” (The General Hospital Corporation, priority 2008, dated 2014).

Test [1] addresses T1, human cathepsin S (Homo sapiens, UniProt P25774).
T1 construct: made in house; host or cells: E. coli
The experiment in a line: Chromogenic substrate assay, inhibition of cathepsin S by E64. The note with it: FIG. 1; protease 0.84 μM, E64 2 μM. Format: biochemical. The method, then: (§1) The concentrations of all the three proteases are at 0.84 μM and that of E64, a non-selective irreversible inhibitor of cysteine proteases, is at 2 μM […].
(§2) Papain served as a positive control cysteine protease. The cathepsin S and K were further evaluated for their capacity to activate PAR receptors as noted below.

Test [2] concerns the target T2, human cathepsin K (Homo sapiens, UniProt P43235).
T2 construct: made in house; host or cells: E. coli
T2 sequence (P43235 115-329): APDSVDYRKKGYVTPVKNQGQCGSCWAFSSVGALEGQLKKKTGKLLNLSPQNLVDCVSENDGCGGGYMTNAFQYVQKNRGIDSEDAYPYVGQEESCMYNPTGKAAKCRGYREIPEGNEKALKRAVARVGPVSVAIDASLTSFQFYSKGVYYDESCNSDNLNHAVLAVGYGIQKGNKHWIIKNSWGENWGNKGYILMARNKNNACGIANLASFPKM
The experiment in a line: Chromogenic substrate assay, inhibition of cathepsin K by E64. As to conditions: FIG. 1; protease 0.84 μM, E64 2 μM. Format: biochemical. The method, then:
as §1, §2

The test system of test [3] is PAR2. The experiment in a line: PAR activation by cytoplasmic calcium release in transfected HeLa cells (Fura-2 ratiometric imaging), PAR2. The note with it: FIG. 3C; cathepsin S 2 μM, E64 10 μM, fura-2 single cell imaging. Format: cell-based, human. Here is the method: (§3) The responses to PAR 2 and 4 were blocked by the protease inhibitor E64 (10 μM) as a control). Other controls included vector alone and vector encoding the PAR1 receptor. Cathepsin S was added as indicated. The averages from at least three separate experiments were then combined +/−SD.
(§4) Salmon sperm (SS) DNA is used as control. The averages from at least three separate experiments were then combined +/−SD.
(§5) PAR activation observed by cytoplasmic calcium release—The four human PAR cDNAs were obtained from commercial sources and cloned into the pcDNA3.1(−) vector (INVITROGEN™ Inc.). HeLa cells were transfected with 10 μg of vector cDNA using Lipofectamine 2000 (INVITROGEN™ Inc.) and cultured for two days in 96-well glass bottom plates at 30,000 cells/well. Cells were loaded with Fura-2 as follows. The medium was aspirated and replaced with 100 μl of complete DMEM containing 2 μM Fura-2 (INVITROGEN™ Inc.) and kept at room temperature in the dark for 1 hr. The medium was again aspirated and each well received 90 μl of HEPES buffered saline (20 mM HEPES, 115 mM NaCl, 5.4 mM KCl, 2 mM CaCl2, 0.8 mM MgCl2, 13.8 mM glucose, pH 7.4). Plates were observed using a Zeiss Axiovert 200M microscope equipped with a filter wheel for monitoring excitation at 340 and 380 nm. Axiovision software, version 4.6 was used to analyze ratiometric calcium imaging of the cells. […]

Test [4] relates to PAR4. The experiment in a line: PAR activation by cytoplasmic calcium release in transfected HeLa cells (Fura-2 ratiometric imaging), PAR4. Format: cell-based, human. As to conditions: FIG. 3C; cathepsin S 2 μM, E64 10 μM, fura-2 single cell imaging. Here is the method: as §3, §4, §5

T1 sequence (P25774 115-331): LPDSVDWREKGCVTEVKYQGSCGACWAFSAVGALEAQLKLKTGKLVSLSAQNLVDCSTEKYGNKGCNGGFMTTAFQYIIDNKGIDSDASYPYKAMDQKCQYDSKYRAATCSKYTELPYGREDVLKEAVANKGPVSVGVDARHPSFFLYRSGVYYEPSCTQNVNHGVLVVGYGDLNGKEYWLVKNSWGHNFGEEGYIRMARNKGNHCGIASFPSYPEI

On to `CC(C)C[C@H](NC(=O)[C@H]1O[C@@H]1C(=O)O)C(=O)NCCCCN=C(N)N` (relative stereo) [E64, trans-epoxysuccinyl-L-leucylamide-(4-guanidino) butane, reference compound], for which the “protease activity of cathepsin S (cleavage of Z-Phe-Arg-pNA) in presence of E64” value in test [1] is “eliminated”. Further, the “protease activity of cathepsin K (cleavage of Z-Phe-Arg-pNA) in presence of E64” value in test [2] is “eliminated”. Moreover, the “cathepsin S induced PAR2 response in presence of E64” value in test [3] is given as “blocked”. Also, the “cathepsin S induced PAR4 response in presence of E64” value in test [4] is “blocked”.
